Assay results: patent US6514734B1, “Polybifunctional reagent having a polymeric backbone and latent reactive moieties and bioactive groups” (Surmodics, Inc., priority 1997, dated 2003)
Where no end group is shown, it is not given here.

Experiments:
CPAE cells = assay: Cell growth activity of immobilized peptides (MTT); assay type: cell-based, Calf; conditions: for growth on peptide polymers, times that observed on uncoated PS / growth on adsorbed peptides, times that observed on uncoated PS: wet immobilization protocol; for relative cell growth score, Immobil. Peptide Polymer: illuminated, dry immobilization protocol; for relative cell growth score, Immobil. Peptide Polymer / relative cell growth score, Adsorbed Peptide Reagent: relative to uncoated; for relative cell growth score, Adsorbed Peptide Reagent: nonilluminated
Protocol: The growth assays were conducted in 24-well PS culture plates. When PU and SR were evaluated, discs of each material (with or without coatings) were placed in the bottoms of the culture plate wells. When PS was evaluated, the bottoms of the wells were coated. For each assay, uncoated and peptide coated biomaterials (PS, PU, and SR) were seeded with CPAE cells at 1500 cells per well and allowed to proliferate in vitro for 4 to 7 days. Then, the media was aspirated and the cell growth was quantitated using MTT dye.
The following table summarizes results that compared cell growth on uncoated substrates, adsorbed peptides, and peptide polymers. As with the attachment assays, the relative numbers of cells growing on each peptide coated biomaterial was divided by the number of cells growing on the uncoated (UC) biomaterials to obtain a relative cell growth score. Each value represents the average of 1 to 4 different experiments, with each experiment being conducted with 3 or 4 replicates. The dry immobilization protocol described herein was used to immobilize all peptides evaluated. Immobil. Peptide Polymer refers to illuminated peptide polymer. Adsorbed Peptide Reagent refers to non illuminated peptide reagent. ND=not determined.
In addition to the peptides shown in the table above, C/H-II and HEP-III were also evaluated for growth on PS. With these two peptides, growth on adsorbed peptides was 1.0 and 1.1 times that observed on uncoated PS, and growth on peptide polymers was 10.5 and 13 times that observed on uncoated PS. These two peptides (polymers and reagent controls) were immobilized via the wet immobilization protocol. The results with C/H-II and HEP-III are the averages of 1and 2 experiments, respectively, with each experiment being conducted with 4 replicates.

[1] = system: Calf pulmonary artery endothelial (CPAE) cells; assay: Cell attachment activity of immobilized peptides (MTT); assay type: cell-based; design: key: cells attached to coated ÷ cells attached to uncoated (MTT); conditions: relative to uncoated; for relative cell attachment score, Immobil. Peptide Polymer: illuminated; for relative cell attachment score, Adsorbed Peptide Reagent: nonilluminated
Protocol: Calf pulmonary artery endothelial (CPAE) cells were purchased from ATCC (American Type Culture Collection, Rockville, Md.) and cultured as indicated by ATCC. The attachment assays were conducted in 48-well PS culture plates. When PU and SR were evaluated, discs of each material (with or without coatings) were placed in the bottoms of the culture plate wells. When PS was evaluated, the bottoms of the wells were coated. For each assay, uncoated and peptide coated biomaterials (PS, PU, and SR) were seeded at 50,000 cells per well in serum free media containing 2 mg/ml of bovine serum albumin (BSA fraction V, from Sigma Chemical Company, St. Louis, Mo.). The cells were allowed to attach to each biomaterial for two hours. Then the unattached cells were removed by aspiration, and the wells were rinsed twice with Hank's Balanced Salt Solution (Celox Corp., Hopkins, Minn.). Finally, the attached cells were quantitated by the addition of culture media containing a metabolic dye, MTT [3-(4,5-dimethylthiazol-2-yl)-2,5-diphenyltetrazolium bromide] which is converted from a yellow tetrazolium salt into an insoluble, purple formazan in the presence of viable cells. After a two hour incubation in culture media containing MTT, the media was removed, and the formazan dye that had been deposited inside the viable cells was solubilized (with acidic isopropanol) and read on a spectrophotometer at 570 nm. The absorbance of the formazan is directly proportional to the number of attached, viable cells present per well.
The following table summarizes results of cell attachment assays comparing immobilized peptide polymers and adsorbed peptide reagent controls. In each case, the relative numbers of cells that attached to the peptide-coated biomaterials (as determined by MTT dye) were divided by the number of cells that attached to the uncoated (UC) biomaterials to obtain a relative cell attachment score. Each value represents the average of 1 to 4 different experiments, with each experiment being conducted with 3 or 4 replicates. The peptides were immobilized onto PS using the wet immobilization protocol described herein and the peptides were immobilized onto SR and PU via the dry immobilization protocol. Immobil. Peptide Polymer refers to illuminated peptide polymer. Adsorbed Peptide Reagent refers to nonilluminated peptide reagent. ND=not determined.

[2] = as obtained from Celsus Laboratories; cited from earlier work
bovine thrombin [3] = biological target: T1, bovine thrombin (Bos taurus, UniProt P00735); assay: Activities of hirudin and hirudin polymer in solution (thrombin inhibition, Chromozym TH); assay type: biochemical; conditions: per mg of hirudin
T1 construct: a known amount of bovine thrombin; purchased Sigma Chemical Co., St. Louis, Mo
Protocol: The specific activities of hirudin and hirudin polymer were determined by standard protocols provided by Transgene and are expressed as antithrombin units (ATU's) per mg of hirudin. One ATU is the amount of hirudin that is required to inhibit the proteolytic activity of one NIH unit of thrombin. For these assays, a known amount of bovine thrombin (175-350 NIH units/mg., from Sigma Chemical Co., St. Louis, Mo.) was preincubated with a series of dilutions of hirudin or hirudin polymer, and the remaining thrombin activity was determined with a chromogenic substrate, Chromozym TH (from Boehringer Mannheim Corp, Indianapolis, Ind.). The specific activities of hirudin assayed before and after incorporation into the hirudin polymer were 11,710 and 10,204 ATU/mg, respectively. Therefore incorporation of hirudin into the polymer produced only a 13% decrease in its activity.

bovine thrombin [4] = biological target: T1, bovine thrombin; conditions: from Transgene Laboratories; cited from earlier work
immunoglobulin G (IgG) = assay: Activity of protein A polymer coatings: binding and elution of IgG from rabbit serum; conditions: for Fold greater IgG on protein A coating: versus uncoated control
Protocol: Protein A is a bacterial protein that binds specifically to the Fc region of immunoglobulin G (IgG) molecules. The activity of the protein A coating on each type of membrane was evaluated by assaying for binding by added IgG. Uncoated membranes were used as controls. For this assay, 2 ml of rabbit serum was diluted 1:5 in PBS and perfused through the coated membranes at 2-3 ml/min. The membranes were then washed with PBS to remove unbound IgG. The bound IgG was then eluted with 0.1 M glycine in 2% acetic acid. The amount of eluted IgG was determined by measuring the absorbance of the eluant at 280 nm and using an extinction coefficient (ε280) of 1.4 ml/cm-mg to calculate the mg of eluted IgG. Also the IgG that eluted from each membrane type was evaluated for purity by reduced SDS PAGE analysis. With the biomaterials coated with protein A polymer, the eluted protein was greater than 90% light and heavy chains of IgG. In contrast, the major protein that eluted from uncoated controls was albumin.
Three discs of each type (PSO or RC) were placed in a MAC-25 holder and evaluated using this procedure.

underivatized HRP = biological target: T2, underivatized HRP (Armoracia rusticana, UniProt P00433); assay: Streptavidin polymer coating on glass rods: nonspecific binding of underivatized HRP
T2 sequence (P00433 31-338): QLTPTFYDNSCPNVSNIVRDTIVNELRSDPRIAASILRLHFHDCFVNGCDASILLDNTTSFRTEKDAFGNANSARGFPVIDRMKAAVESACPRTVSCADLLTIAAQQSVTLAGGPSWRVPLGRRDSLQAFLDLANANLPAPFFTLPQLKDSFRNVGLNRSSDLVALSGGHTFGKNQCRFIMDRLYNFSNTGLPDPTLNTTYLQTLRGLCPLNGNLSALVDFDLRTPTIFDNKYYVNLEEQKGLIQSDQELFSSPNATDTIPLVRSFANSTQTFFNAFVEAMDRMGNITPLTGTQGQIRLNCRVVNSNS
Protocol: (§1) The organosilane primed glass rods were dipped into a solution of streptavidin polymer for 30 seconds. The glass rods were removed from the solution, allowed to air dry, and illuminated for 30 seconds with a Dymax lamp. Adsorption controls were prepared via the same protocol, except that they were not illuminated. Both type of coated rods were washed with PBS containing 0.05% Tween 20 to remove nonadherent streptavidin polymer.
(§2) Streptavidin is a receptor that binds strongly to biotin as its ligand. The activity of streptavidin polymer coating was evaluated by quantifying the binding of added biotin derivatized horseradish peroxidase (biotin-HRP, obtained from Pierce Chemical Company, Rockford, Ill.). The glass rods were incubated for one hour in a 9 μg/ml solution of biotin-HRP. The binding of underivatized HRP (added at 9 μg/mi) was evaluated as a control for nonspecific binding of HRP to the glass rods. The rods were then washed with PBS containing 0.05% Tween 20 to remove nonbound HRP, and the relative activity of bound HRP was evaluated with a TMB peroxidase substrate system (Kirkegaard and Perry Laboratory, Inc., Gaithersburg, Md.). HRP catalyzes the oxidation of TMB and produces a color that is quantitated spectrophotometrically at 405 nm. Each result is the average of 3 determinations.

[5] = system: biotin derivatized horseradish peroxidase (biotin-HRP); assay: Streptavidin polymer coating on glass rods: binding of biotin-HRP; conditions: for Absorbance of Biotin-HRP: glass rods
Protocol: as §1, §2

[6] = Polyurethane, dry immobilization protocol
[7] = Silicone Rubber, dry immobilization protocol

## C/H-II polymer: photoreactive polyacrylamide copolymer of C/H-II peptide monomer (SEQ ID NO: 10), BBA-APMA and acrylamide (CKNNQKSEPLIGRKKT; also: photoreactive polyacrylamide copolymer with BBA-APMA and acrylamide)
CPAE cells
  growth on peptide polymers, times that observed on uncoated PS: 10.5 times

## C/H-V polymer: photoreactive polyacrylamide copolymer of C/H-V peptide monomer (SEQ ID NO: 9), BBA-APMA and acrylamide (CKKWQPPRARI; also: photoreactive polyacrylamide copolymer with BBA-APMA and acrylamide)
[1]; [6]
  relative cell attachment score, Immobil. Peptide Polymer: 1.4
[1]; [7]
  relative cell attachment score, Immobil. Peptide Polymer: 1.3
CPAE cells; Polystyrene, 4 to 7 days
  relative cell growth score, Immobil. Peptide Polymer: 11.3
CPAE cells; Polyurethane
  relative cell growth score, Immobil. Peptide Polymer: 3.9
CPAE cells; Silicone Rubber
  relative cell growth score, Immobil. Peptide Polymer: 1.0

## CKKWQPPRARI [C/H-V reagent control, C/H-V peptide not incorporated into polymer, fibronectin-derived, reference compound]
[1]; Silicone Rubber
  relative cell attachment score, Adsorbed Peptide Reagent: 0.4
CPAE cells; Polystyrene
  relative cell growth score, Adsorbed Peptide Reagent: 1.0
CPAE cells; Polyurethane
  relative cell growth score, Adsorbed Peptide Reagent: 0.7
CPAE cells; Silicone Rubber
  relative cell growth score, Adsorbed Peptide Reagent: 2.0

## Cys Lys Asn Asn Gln Lys Ser GIu Pro Leu Ile Gly Arg Lys Lys Thr [C/H-II reagent control, reference compound]
CPAE cells
  growth on adsorbed peptides, times that observed on uncoated PS: 1.0 times

## Cys Lys Gly Glu Phe Try Phe Asp Leu Arg Leu Lys Gly Asp Lys [HEP-III reagent control, reference compound]
CPAE cells
  growth on adsorbed peptides, times that observed on uncoated PS: 1.1 times

## F-9 polymer: photoreactive polyacrylamide copolymer of F-9 peptide monomer (SEQ ID NO:11), BBA-APMA and acrylamide (RYVVLPRPVCFEKK; also: photoreactive polyacrylamide copolymer with BBA-APMA and acrylamide)
[1]; Polystyrene, wet immobilization protocol
  relative cell attachment score, Immobil. Peptide Polymer: 5.7
[1]; [6]
  relative cell attachment score, Immobil. Peptide Polymer: 1.9
[1]; [7]
  relative cell attachment score, Immobil. Peptide Polymer: 0.9
CPAE cells; Polystyrene, 4 to 7 days
  relative cell growth score, Immobil. Peptide Polymer: 14.8
CPAE cells; Polyurethane
  relative cell growth score, Immobil. Peptide Polymer: 7.7
CPAE cells; Silicone Rubber
  relative cell growth score, Immobil. Peptide Polymer: 2.4

## GRGDSPKKC [RGD reagent control, reference compound]
[1]; Polystyrene
  relative cell attachment score, Adsorbed Peptide Reagent: 1.4
[1]; Silicone Rubber
  relative cell attachment score, Adsorbed Peptide Reagent: 1.1
CPAE cells; Polystyrene
  relative cell growth score, Adsorbed Peptide Reagent: 1.2
CPAE cells; Polyurethane
  relative cell growth score, Adsorbed Peptide Reagent: 1.7
CPAE cells; Silicone Rubber
  relative cell growth score, Adsorbed Peptide Reagent: 1.1

## HEP-III polymer: photoreactive polyacrylamide copolymer of HEP-III peptide monomer (SEQ ID NO: 12), BBA-APMA and acrylamide (CKGEFYFDLRLKGDK; also: photoreactive polyacrylamide copolymer with BBA-APMA and acrylamide)
CPAE cells
  growth on peptide polymers, times that observed on uncoated PS: 13 times

## RYVVLPRPVCFEKK [F-9 reagent control, F-9 peptide not incorporated into polymer, laminin-derived, reference compound]
[1]; Polystyrene
  relative cell attachment score, Adsorbed Peptide Reagent: 0.8
CPAE cells; Polystyrene
  relative cell growth score, Adsorbed Peptide Reagent: 1.0
CPAE cells; Polyurethane
  relative cell growth score, Adsorbed Peptide Reagent: 1.7
CPAE cells; Silicone Rubber
  relative cell growth score, Adsorbed Peptide Reagent: 1.7

## heparin [Unbleached heparin]
[2]
  heparin activity: 152 units/mg

## hirudin
Bovine thrombin [3]
  specific activity: 11,710 ATU/mg
Bovine thrombin [4]
  activity of recombinant hirudin as obtained: 16,500±2000 ATU/mg

## protein A polymer: photoreactive polyacrylamide containing recombinant staphylococcal protein A ligands
Immunoglobulin G (IgG); Polysulfone membrane, average of 10 cycles
  IgG eluted: 0.680 mg/disc
Immunoglobulin G (IgG); Polysulfone
  Fold greater IgG on protein A coating: 34
Immunoglobulin G (IgG); Regenerated cellulose membrane, average of 3 cycles
  IgG eluted: 0.383 mg/disc
Immunoglobulin G (IgG); Regenerated cellulose
  Fold greater IgG on protein A coating: 64

## streptavidin polymer: photoreactive polyacrylamide containing streptavidin ligands
Underivatized HRP; adsorbed (nonilluminated)
  Absorbance of HRP: 0.065
Underivatized HRP; covalent (photoimmobilized)
  Absorbance of HRP: 0.056
[5]; biotin-HRP added
  peroxidase activity of adsorbed, fold less than covalent: 3.5 fold
[5]; adsorbed (nonilluminated)
  Absorbance of Biotin-HRP: 0.285
[5]; covalent (photoimmobilized)
  Absorbance of Biotin-HRP: 1.005
